Measured values taken from US9540647B2, “Methods and compositions for the treatment of cancer” (University of South Alabama, priority 2010, dated 2017).
“Also recorded” adds a separate entry of the source. Read-outs that look alike come from different tables or passages of the source. Starred links: 1 amine or outer side, 2 acyl side, 3 side chain; linkers in the order of their positions; H or OH if unused. Positions of bridges follow the written chain, without caps; N, C: chain ends. Non-standard residues stand in square brackets, D forms with d. Residues, ends and D or L forms follow the SMILES beside them. Chains are numbered I, II in the order given. Actinocin(9to1) = Cc1c2oc3c(C)ccc(C(=O)[*:1])c3nc-2c(C(=O)[*:2])c(N)c1=O; NMeV = CN[C@H](C(=O)O)C(C)C; Nle = CCCC[C@H](N)C(=O)O; Sar = CNCC(=O)O

Tests used:
OPN promoter = OPN promoter luciferase reporter assay in metastatic melanoma cell lines; assay type: cell-based, human; conditions: MCC012A and MCC012F cell lines; tomatidine
Excerpt: Empty pGL3 vector was used as control. […] Readings were normalized to total protein content. Each parameter was studied in triplicate and the experiment repeated at least 3 times. The data are represented as percent luciferase activity, which was derived as a percent of the relative light units in treated groups compared with the untreated groups.

ERCC1 = conditions: A2780-CP70; cited from earlier work
ERCC1, XPD, XRCC1 [1] = conditions: cited from earlier work; for ERCC1, XPD, or XRCC1 regulation: previous experiments, agents at IC50 doses
[2] = test system: MDA-MB-435 (435) and SUM1315 (1315) cells; assay: Drug sensitivity of cells transfected with shRNA to GLI1 (MTS assay); assay type: cell-based, human; conditions: cells transfected with shRNA to GLI1 vs empty vector; 24 hours
Protocol: MDA-MB-435 (435) and SUM1315 (1315) cells were transfected with either empty vector (vec) or with vector encoding shRNA to GLI1 (shGLI1). Cells were treated with the indicated concentrations of drugs for 24 hours and viability was assessed using an MTS assay (FIG. 62A-FIG. 62C). […] Using real-time quantitative RT-PCR the GLI1 shRNA brings about a decrease of about 50% in the expression of ABCB1 (MDR1) and 90% decrease in ABCG2 (BCRP).

[3] = test system: GLI1-knocked down MDA-MB-435 cells; assay: Migration, invasion and motility of GLI1-knocked down cells with OPN add-back; assay type: cell-based, human
Protocol: Motility Assay—These experiments were performed as previously described (Shevde, L. A., et al. (2006) Clin. Exp. Metastasis 23, 123-133). Images were acquired at T0, the reading at the initial time, and at T10 (10 h later). The experiment was conducted in duplicate and cell motility was calculated as (T0−T10)/T0, which represents the rate of movement over a 10-h period. For OPN add-back experiments the cells were pretreated for 12 h with 100 ng/ml human OPN (recombinant R & D Systems) and the assay conducted in the presence of OPN. Each experimental group was assessed in duplicate and data were recorded in three fields per well. Thus, six data points were recorded and analyzed per experimental group.
Invasion and Migration Assays—These experiments were performed as previously outlined (18) using a modified Boyden chamber assay. OPN add-back experiments for migration and invasion were conducted as described above with an additional step of pre-treating the cells for 24 h with rOPN. OPN was added to the upper and lower chambers (100 ng/ml) to ensure the OPN was present during the entire duration of the experiment. Each experimental group was assessed as three independent replicates.

RAW264.7 cells [4] = assay: Osteoclast differentiation (TRAP assay); assay type: cell-based, murine; conditions: DM supplemented with OPN (100 ng/ml) or SHH (100 nM) vs DM
Protocol: Cell lines—Human metastatic breast cancer cells, MDA-MB-231, were cultured in Dulbecco's Modified Eagle's Medium (DMEM/F12; Invitrogen, Carlsbad, Calif.), supplemented with 2 mM L-glutamine, 1 mM sodium pyruvate, 0.02 mM non-essential amino acids, 5% fetal bovine serum, FBS (Atlanta Biologicals, Norcross, Ga.), without antibiotics or antimycotics (cDME/F12). SUM1315 and SUM159 cells (DiMeo, T. A., et al. (2009) Cancer Res 69, 5364-5373) (Asterand, Detroit, Mich.) were cultured in DMEM/F12 supplemented with […], 5% FBS (Atlanta Biologicals) and either 10 ng/ml EGF or 1 ng/ml hydrocortisone, without antibiotics or antimycotics. The SUM1315 cells are derived from a metastasis in a patient with infiltrating ductal carcinoma; SUM159 cells were derived from a primary breast tumor with metaplastic carcinoma. RAW264.7 (ATCC, TIB 71) cells, a murine pre-osteoclastic line capable of differentiation and […] in culture (in presence of RANKL and MCSF), were grown in DMEM with L-glutamine (ATCC, 30-2002) supplemented with 10% FBS. A 2× differentiation medium (DM) was formulated for the RAW 264.7 cells comprising RAW264.7 growth medium supplemented with 20% FBS, RANKL (100 ng/ml) and M-CSF (40 ng/ml) (Matsubara, T., et al. J Bone Miner Res 25, 1068-1076). Conditioned media was harvested from breast cancer cells and mixed in a 1:1 ratio with double strength differentiation medium to assess the effect on osteoclast differentiation. 1×DM was used as control or wherever SHH (R & D Systems, Minneapolis, Minn.) or OPN (R & D Systems) was used alone. The medium on the RAW264.7 cells was replenished every 48 hours. In order to assess the effect of secreted Hh ligands, the neutralizing 5E1 antibody was used (Developmental Studies Hybridoma Bank, at the University of Iowa, Iowa). […] Medium was supplemented with 5E1 (2.5 μg/ml) and was changed on alternate days until the end of the experiment. The effect of OPN on osteoclast activity was assessed by transfecting an OPN shRNA-expressing construct on day 6 post-induction of differentiation. Fresh DM was added the following day and cells were allowed to grow for another 12 hours before termination of experiment. GLI1 expression was silenced in the SUM1315 cells using shRNA targeting GLI1 into pSuperior. gfp+neo (Oligoengine, WA, USA). Silencing of OPN expression was done using OPN-targeting shRNA cloned into pSuper (Oligoengine)
Osteoclast differentiation and activity assays—Tartarate-resistant acid phosphatase (TRAP) assay was conducted for RAW 264.7 following the manufacturer's protocol (Sigma, St. Louis, Mo.). This assay was indicative of the extent of differentiation. […] The percentage of area resorbed was calculated using the NIS-Elements BR. […]

RAW264.7 cells [5] = assay: Osteoclast resorption activity (OAAS plates); assay type: cell-based, murine; conditions: DM with OPN (100 ng/ml) or SHH (100 nM)
Protocol: Osteoclast differentiation and activity assays—Tartarate-resistant acid phosphatase (TRAP) assay was conducted for RAW 264.7 following the manufacturer's protocol (Sigma, St. Louis, Mo.). This assay was indicative of the extent of differentiation. OAAS plates (Osteogenic Core Technologies, Choongnam, Republic of Korea) were utilized to measure osteoclastic activity. RAW 264.7 cells (25×103) were inoculated in 48-well plates. Cells were treated with serum-free conditioned media from breast cancer cells or 100 nM SHH or 100 ng/ml OPN on the following day. Media was changed every two days and the experiments were terminated either on day 6 (day 7 for knockdown experiments, with transfections being done on the sixth day). At the completion, cells were detached with 5% sodium hypochlorite and the wells were observed under a Nikon Eclipse TS 100 microscope at 10× magnification. […] The percentage of area resorbed was calculated using the NIS-Elements BR. 3.1 software.

A2780-CP70 cells [6] = assay: Cisplatin sensitivity of A2780-CP70 cells (percent cell growth); conditions: read-out: IC50 of cisplatin
Protocol: Controls included α-tubulin and histone deactylase.
Transfected cells were treated with 0 μM, 2 μM, 5 μM, 10 μM, 30 μM, and 50 μM cisplatin at 24 hr post-transfection.

c-jun [7] = assay: c-jun and c-fos protein expression and c-jun phosphorylation in A2780-CP70 cells (Western blot); assay type: cell-based, human; conditions: IC50 dose of cisplatin
Protocol: c-jun protein expression was assessed in cisplatin-treated A2780-CP70 cells using Western blot analysis.
Protein expression of c-fos and phosphorylation of c-jun in cyclopamine-treated A2780-CP70 cells was assessed using Western blot analysis. Protein levels for c-jun, c-fos, phosphorylated c-jun (Ser 63), phosphorylated c-jun (Ser 73), and phosphorylated c-jun (Thr 91, Thr 93) were tested in cytosolic, nuclear, and whole cell fractions at 0 hr, 6 hr, 24 hr, 48 hr, and 72 hr. Internal controls for cytosolic and nuclear fractions included α-tubulin and histone deacetylase 3.
Phosphorylation of c-jun in A2780-CP70 cells transfected with anti-GLI1 shRNA construct was assessed using Western blot analysis. Protein levels for c-jun, phosphorylated c-jun (Ser 63), phosphorylated c-jun (Ser 73), and phosphorylated c-jun (Thr 91, Thr 93) were examined at 0 hr, 6 hr, 24 hr, 48 hr, and 72 hr.

c-jun [8] = conditions: cited from earlier work
ERCC1, XPD, XRCC1 [9] = assay: ERCC1, XPD and XRCC1 mRNA levels in A2780-CP70 cells (semi-quantitative PCR); assay type: cell-based, human; conditions: cells treated with cisplatin
A2780-CP70 cells [10] = conditions: A2780-CP70, cisplatin-resistant; cited from earlier work

C[C@H]1CC[C@]2(NC1)O[C@H]1C[C@H]3[C@@H]4CC[C@H]5C[C@@H](O)CC[C@]5(C)[C@H]4CC[C@]3(C)[C@H]1[C@@H]2C [Tomatidine, tomatidine]
promoter activity of OPN (OPN promoter): no effect

Cc1cc(C)c(/C=C2\C(=O)Nc3ccccc32)[nH]1 [SU5416]
ERCC1 up-regulation after cisplatin exposure (ERCC1): blunted ERCC1 up-regulation

[Cr] [chromium]
ERCC1 up-regulation after cisplatin exposure (ERCC1): blunted ERCC1 up-regulation

CO[C@H]1[C@@H](OC)C[C@H](C)[C@@H](OC)C2=CC(=O)C=C(NC(=O)/C(C)=C/C=C\[C@H](OC)[C@@H](OC(N)=O)/C(C)=C/[C@@H]1C)C2=O [herbimycin A]
ERCC1 up-regulation after cisplatin exposure (ERCC1): blunted ERCC1 up-regulation

[Pt] [platinum]
ERCC1 up-regulation after cisplatin exposure (ERCC1): blunted ERCC1 up-regulation

CCCCCCCCCCCCCC(=O)O[C@@H]1[C@@H](C)[C@@]2(O)[C@@H](C=C(CO)C[C@]3(O)C(=O)C(C)=C[C@@H]23)[C@@H]2C(C)(C)[C@]12OC(C)=O [phorbol ester]
ERCC1, XPD, or XRCC1 regulation (ERCC1, XPD, XRCC1 [1]): up-regulated

CC(=O)N[C@@H](CSC(=O)[C@]1([C@@H](O)C(C)C)NC(=O)[C@H](C)[C@@H]1O)C(=O)O [lactacystin]
ERCC1 up-regulation after cisplatin exposure (ERCC1): blunted ERCC1 up-regulation

C[C@@H]1C[C@@H]([C@H](O)CC2CC(=O)NC(=O)C2)C(=O)[C@@H](C)C1 [cycloheximide]
ERCC1 up-regulation after cisplatin exposure (ERCC1): blunted ERCC1 up-regulation

CC[C@H](C)[C@@H]1NC(=O)CNC(=O)[C@@H]2Cc3c([nH]c4cc(O)ccc34)[S+]([O-])C[C@@H](NC(=O)CNC1=O)C(=O)N[C@@H](CC(N)=O)C(=O)N1C[C@H](O)C[C@H]1C(=O)N[C@@H]([C@@H](C)[C@@H](O)CO)C(=O)N2 (stereo in doubt) [α-amanitin]
ERCC1 up-regulation after cisplatin exposure (ERCC1): blunted ERCC1 up-regulation

CCCC[C@@H](C=O)NC(=O)[C@H](CC(C)C)NC(=O)[C@H](CC(C)C)NC(C)=O [N-acetyl-leucyl-leucyl-norleucinal] (Ac-Leu-Leu-[Nle]-aldehyde)
ERCC1 up-regulation after cisplatin exposure (ERCC1): blunted ERCC1 up-regulation

CC(=O)O[C@H]1C(=O)[C@@]2(C)[C@H]([C@H](OC(=O)c3ccccc3)[C@]3(O)C[C@H](OC(=O)[C@H](O)[C@@H](NC(=O)c4ccccc4)c4ccccc4)C(C)=C1C3(C)C)[C@]1(OC(C)=O)CO[C@@H]1C[C@@H]2O [taxol]
sensitivity to drug (viability, MTS assay) [2]: increased sensitivity

OPN: recombinant human osteopontin (R & D Systems)
cell motility (wound healing assay) ([3]; KO1 and KO4 cells in presence of recombinant OPN): restored
cell invasion through Matrigel ([3]; KO1 and KO4 cells, OPN 100 ng/ml vs untreated): significantly larger numbers
cell migration ([3]; KO1 and KO4 cells, OPN 100 ng/ml vs untreated, modified Boyden chamber): significantly larger numbers
numbers of multinucleate TRAP-positive cells (RAW264.7 cells [4]): stimulate osteoclast differentiation; also recorded: significantly (* indicates p<0.005) increases
resorption activity of differentiated osteoclasts (RAW264.7 cells [5]): significantly (* indicates p<0.001) increases the resorption activity

N.N.[Cl][Pt][Cl] [cisplatin]
IC50 (A2780-CP70 cells [6]; cells transfected with 0.07 μg/well anti-Gli1 shRNA construct, cisplatin at 24 hr post-transfection): 8 µM
IC50 (A2780-CP70 cells [6]; control cells): 28 µM
expected increase in ERCC1 mRNA levels (ERCC1, XPD, XRCC1 [1]; cells treated with cisplatin only): 6 fold
ERCC1 mRNA half-life (ERCC1, XPD, XRCC1 [1]; cisplatin-treated cells (14 hr in untreated cells)): 24 h
ERCC1, XPD, or XRCC1 regulation (ERCC1, XPD, XRCC1 [1]): up-regulated
c-jun protein expression (c-jun [7]): increased substantial between 0-6 hr
phosphorylation of c-jun protein, peak over baseline (c-jun [8]; 3-5 hr after cisplatin treatment): 15 fold
time of peak c-jun (Ser 63/73) protein levels (c-jun [8]; after cisplatin exposure): 3 to 5 h
expression levels of ERCC1, XPD, and XRCC1 proteins, increase (ERCC1, XPD, XRCC1 [9]): 5 fold
IC50 (A2780-CP70 cells [10]): ~40 µM

Cc1c2oc3c(C)ccc(C(=O)N[C@@H]4C(=O)N[C@H](C(C)C)C(=O)N5CCC[C@H]5C(=O)N(C)CC(=O)N(C)[C@@H](C(C)C)C(=O)O[C@@H]4C)c3nc-2c(C(=O)N[C@@H]2C(=O)N[C@H](C(C)C)C(=O)N3CCC[C@H]3C(=O)N(C)CC(=O)N(C)[C@@H](C(C)C)C(=O)O[C@@H]2C)c(N)c1=O [actinomycin D] (I: T[dV]P[Sar][NMeV] / II: T[dV]P[Sar][NMeV]; ester I:1-I:C, II:1-II:C; linker I:N-II:N via Actinocin(9to1))
ERCC1 up-regulation after cisplatin exposure (ERCC1): blunted ERCC1 up-regulation

COc1cccc2c1C(=O)c1c(O)c3c(c(O)c1C2=O)C[C@@](O)(C(=O)CO)C[C@@H]3O[C@H]1C[C@H](N)[C@H](O)[C@H](C)O1 [doxorubicin]
sensitivity to drug (viability, MTS assay) [2]: increased sensitivity

B1: interleukin 1-α (protein, UniProt P01583 113-271, looked up)
Interleukin-1 alpha: SAPFSFLSNVKYNFMRIIKYEFILNDALNQSIIRANDQYLTAAALHNLDEAVKFDMGAYKSSKDDAKITVILRISKTQLYVTAQDEDQPVLLKEMPEIPKTITGSETNLLFFWETHGTKNYFTSVAHPNLFIATKQDYWVCLAGGPPSITDFQILENQA
ERCC1 up-regulation after cisplatin exposure (ERCC1): blunted ERCC1 up-regulation
